Values of other authors, collected in patent US20110271957A1, “Delivery of estrogen and bioequivalents thereof via the pulmonary tract” (BATTELLE MEMORIAL INSTITUTE, priority 2010, published 2011).

Conditions: intranasal delivery route

bioavailability of administered estradiol: about 25%
Compound: C[C@]12CC[C@@H]3c4ccc(O)cc4CC[C@H]3[C@@H]1CC[C@@H]2O [estradiol, 17β-estradiol]
